# Data taken from patent US20120070411A1, “SUBSTITUTED NUCLEOTIDE ANALOGS” (Alios BioPharma, Inc., priority 2010, published 2012).
# B1: IFN-Lambda 2 (protein, UniProt Q8IZJ0 26-200, looked up)
# Interferon lambda-2: VPVARLHGALPDARGCHIAQFKSLSPQELQAFKRAKDALEESLLLKDCRCHSRLFPRTWDLRQLQVRERPMALEAELALTLKVLEATADTDPALVDVLDQPLHTLHHILSQFRACIQPQPTAGPRTRGRLHHWLYRLQEAPKKESPGCLEASVTFNLFRLLTRDLNCVASGDLCV
# B2: IFN-Lambda 3 (protein, UniProt Q8IZI9 22-196, looked up)
# Interferon lambda-3: VPVARLRGALPDARGCHIAQFKSLSPQELQAFKRAKDALEESLLLKDCKCRSRLFPRTWDLRQLQVRERPVALEAELALTLKVLEATADTDPALGDVLDQPLHTLHHILSQLRACIQPQPTAGPRTRGRLHHWLHRLQEAPKKESPGCLEASVTFNLFRLLTRDLNCVASGDLCV
# B3: IFN-Lambda 1 (protein, UniProt Q8IU54 20-200, looked up)
# Interferon lambda-1: GPVPTSKPTTTGKGCHIGRFKSLSPQELASFKKARDALEESLKLKNWSCSSPVFPGNWDLRLLQVRERPVALEAELALTLKVLEAAAGPALEDVLDQPLHTLHHILSQLQACIQPQPTAGPRPRGRLHHWLHRLQEAPKKESAGCLEASVTFNLFRLLTRDLKYVADGNLCLRTSTHPEST
# Tested on: Huh-7 cells containing the self-replicating, subgenomic HCV replicon
# Assay: HCV replicon assay (luciferase reporter, 72 h)
# Assay type: cell-based
# Settings: Hepatitis C virus, Huh-7, 72 h, read-out: HCV Replicon Activity (EC50)
# Protocol: Huh-7 cells containing the self-replicating, subgenomic HCV replicon with a stable luciferase (LUC) reporter were cultured in Dulbecco's modified Eagle's medium (DMEM) containing 2 mM L-glutamine and supplemented with 10% heat-inactivated fetal bovine serum (FBS), 1% penicillin-streptomyocin, 1% nonessential amino acids, and 0.5 mg/ml G418.
# On the first day, 5,000 HCV replicon cells were plated per well in a 96-well plate. On the following day, test compounds were solubilized in 100% DMSO to 100× the desired final testing concentration. Each compound was then serially diluted (1:3) up to 9 different concentrations. Compounds in 100% DMSO are reduced to 10% DMSO by diluting 1:10 in cell culture media. The compounds were diluted to 10% DMSO with cell culture media, which were used to dose the HCV replicon cells in 96-well format. The final DMSO concentration was 1%. The HCV replicon cells were incubated at 37° C. for 72 hours. At 72 hours, cells were processed when the cells are still subconfluent. Compounds that reduce the LUC signal are determined by Bright-Glo Luciferase Assay (Promega, Madison, Wis.). % Inhibition was determined for each compound concentration in relation to the control cells (untreated HCV replicon) to calculate the EC50.
row,Molecule,EC50 [µM]
1,"COC(=O)[C@H](C)NP(=O)(Oc1ccccc1)O[C@H](C)[C@H]1O[C@@H](n2ccc(=O)[nH]c2=O)[C@@H](O)[C@@H]1O (stereo partly drawn) [D1, 5′(R)—C-methylarabinouridine 5′-[phenyl(methoxy-L-alaninyl)]phosphate]",< 1000
2,"COC(=O)[C@H](C)NP(=O)(Oc1ccccc1)O[C@@H](C)[C@H]1O[C@@H](n2ccc(=O)[nH]c2=O)[C@@H](O)[C@@H]1O (stereo partly drawn) [D2, 5′ (S)—C-methylarabinouridine 5′-[phenyl(methoxy-L-alaninyl)]phosphate]",< 1000
3,"CC(C)OC(=O)[C@H](C)NP(=O)(Oc1ccccc1)O[C@@H](C)[C@H]1O[C@@H](n2cnc3c(N)nc(N)nc32)[C@H](O)[C@@H]1O (stereo partly drawn) [E1, 1-(2,6-diaminopurin-9-yl)-5(S)—C-methyl-β-D-ribofuranose 5-[phenyl(isopropoxy-L-alaninyl)]phosphate]",< 30
4,COC(=O)[C@@H](C)NP(=O)(Oc1ccccc1)O[C@@H](C)[C@H]1O[C@@H](n2cnc3c(N)ncnc32)[C@](C)(O)[C@@H]1O (stereo partly shown) [drawing 355],30 to 200

# Same assay, conditions: read-out: HCV Replicon Activity (EC50); Table 9; Huh-7 HCV replicon cells, luciferase, 72 hours
row,Molecule,EC50 [µM]
1,COC(=O)[C@@H](C)NP(=O)(Oc1ccccc1)O[C@@H](C)[C@H]1O[C@@H](n2cnc3c(N)ncnc32)[C@](C)(O)[C@@H]1O (stereo partly shown) [drawing 364],30 to 200

# Tested on: HCV genotype 1b HCV replicon harbored in Huh7 cells
# Assay: Combination testing with compound A10 in HCV replicon (CalcuSyn CI and MacSynergy II synergy volume)
# Assay type: cell-based
# Settings: combination of compound A10 with the listed compound; MacSynergy II, Bliss independence; 25-100 synergistic, >100 strongly synergistic
# Protocol: Two or more test compounds were tested in combination with each other using an HCV genotype 1b HCV replicon harbored in Huh7 cells with a stable luciferase (LUC) reporter. Cells were cultured under standard conditions in Dulbecco's modified Eagle's medium (DMEM; Mediatech Inc, Herndon, Va.) containing 10% heat-inactivated fetal bovine serum (FBS; Mediatech Inc, Herndon, Va.) 2 mM L-glutamine, and nonessential amino acids (JRH Biosciences). HCV replicon cells were plated in a 96-well plate at a density of 10^4 cells per well in DMEM with 10% FBS. […] The cells were incubated with no compound as a control, with the test compounds, or the combination of compounds for 72 h. The direct effects of the combination of the test compounds were examined using a luciferase (LUC) based reporter as determined by the Bright-Glo Luciferase Assay (Promega, Madison, Wis.). Dose-response curves were determined for individual compounds and fixed ratio combinations of two or more test compounds.
# The effects of test compound combinations were evaluated by two separate methods. In the Loewe additivity model, the experimental replicon data was analyzed by using CalcuSyn (Biosoft, Ferguson, Mo.), a computer program based on the method of Chou and Talalay. The program uses the experimental data to calculate a combination index (CI) value for each experimental combination tested. A CI value of <1 indicates a synergistic effect, a CI value of 1 indicates an additive effect, and a CI value of >1 indicates an antagonistic effect.
# The second method utilized for evaluating combination effects used a program called MacSynergy II. MacSynergy II software was kindly provided by Dr. M. Prichard (University of Michigan). The Prichard Model allows for a three-dimensional examination of drug interactions and a calculation of the synergy volume (units: μM^2%) generated from running the replicon assay using a checkerboard combination of two or more inhibitors. The volumes of synergy (positive volumes) or antagonism (negative volumes) represent the relative quantity of synergism or antagonism per change in the concentrations of the two drugs. Synergy and antagonism volumes are defined based on the Bliss independence model. In this model, synergy volumes of less than −25 indicate antagonistic interactions, volumes in the −25-25 range indicate additive behavior, volumes in the 25-100 range indicate synergistic behavior and volumes>100 indicate strong synergistic behavior.
row,Molecule,Synergy Volume [μM^2%]
1,COc1ccc2c(O[C@@H]3C[C@H]4C(=O)N[C@]5(C(=O)O)C[C@H]5/C=C\CCCCC[C@H](NC(=O)OC5CCCC5)C(=O)N4C3)cc(-c3csc(NC(C)C)n3)nc2c1 [BILN-2061],12
2,COC(=O)N[C@H](C(=O)N1CCC[C@H]1c1nc(-c2ccc(-c3ccc(-c4c[nH]c([C@@H]5CCCN5C(=O)[C@@H](NC(=O)OC)C(C)C)n4)cc3)cc2)c[nH]1)C(C)C [BMS-790052],25
3,"CCc1cc(CC[C@]2(C3CCCC3)CC(O)=C(Cc3nc4nc(C)cc(C)n4n3)C(=O)O2)cc(CC)n1 [Filibuvir, FILIBUVIR]",38
4,Fc1ccccc1-c1nc2ccn(Cc3ccc(-c4ccc(C(F)(F)F)cc4C(F)(F)F)nn3)cc-2n1 [GS-9190],112
5,CNC(=O)c1c(-c2ccc(F)cc2)oc2cc(N(CCO)S(C)(=O)=O)c(C3CC3)cc12 [HCV-796],35
6,COc1nc(N)nc2c1ncn2[C@@H]1O[C@H](COP(=O)(N[C@@H](C)C(=O)OCC(C)(C)C)Oc2cccc3ccccc23)[C@@H](O)[C@@]1(C)O (stereo partly shown) [INX-189],31
7,"CC(C)(C)OC(=O)N[C@H]1CCCCC/C=C\[C@@H]2C[C@@]2(C(=O)NS(=O)(=O)C2CC2)NC(=O)[C@@H]2C[C@@H](OC(=O)N3Cc4cccc(F)c4C3)CN2C1=O [ITMN-191, DANOPREVIR]",39
8,CCOc1nc(N)nc2c1ncn2[C@@H]1O[C@@H]2COP(=O)(OC(C)C)O[C@H]2[C@@]1(C)F (stereo partly shown) [PSI-938],36
9,C[C@@]1(F)[C@H](O)[C@@H](CO)O[C@H]1n1ccc(N)nc1=O [PSI-6130],21
10,CC(C)OC(=O)[C@H](C)NP(=O)(OC[C@H]1O[C@@H](n2ccc(=O)[nH]c2=O)[C@](C)(F)[C@@H]1O)Oc1ccccc1 (stereo partly shown) [PSI-7851],14
11,"NC(=O)c1ncn([C@@H]2O[C@H](CO)[C@@H](O)[C@H]2O)n1 [Ribavirin, ribavirin]",0
12,COc1ccc2c(O[C@@H]3C[C@H]4C(=O)N[C@]5(C(=O)NS(=O)(=O)C6CC6)C[C@H]5/C=C\CCCCN(C)C(=O)[C@@H]4C3)cc(-c3nc(C(C)C)cs3)nc2c1C [TMC-435],104
13,CC(C)(C)C#Cc1cc(N(C(=O)[C@H]2CC[C@H](C)CC2)[C@H]2CC[C@H](O)CC2)c(C(=O)O)s1 [VX-222],52
14,"CCC[C@H](NC(=O)[C@@H]1[C@H]2CCC[C@H]2CN1C(=O)[C@@H](NC(=O)[C@@H](NC(=O)c1cnccn1)C1CCCCC1)C(C)(C)C)C(=O)C(=O)NC1CC1 [VX-950, Telaprevir]",34
15,B1,31
16,B2,33
17,B3,43
